Measurements as given in PMC8592027, “Structure-Guided Design of D-Galactal Derivatives with High Affinity and Selectivity for the Galectin-8 N-Terminal Domain” (ACS Medicinal Chemistry Letters, 2021).
Entries after “also recorded” stand apart in the source; their conditions may differ. Read-outs that look alike come from different tables or passages of the source.

Legend:
[1] = molecular target: T1, galectin-4C (C-terminal domain) (Homo sapiens, UniProt P56470); experiment: Competitive fluorescence polarization assay, galectin-4C; assay type: binding; details: mean ± SEM of n = 4–8
T1 construct: galectins (N = N-terminal domain, C = C-terminal domain); made in house
T1 sequence (P56470 194-323 limits assumed): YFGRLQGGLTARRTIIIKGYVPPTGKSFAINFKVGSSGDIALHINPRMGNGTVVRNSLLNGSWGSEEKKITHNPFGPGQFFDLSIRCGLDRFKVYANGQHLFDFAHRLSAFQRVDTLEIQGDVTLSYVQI
Procedure: (§1) 1. Competitive fluorescence polarization experiments:
(§2) Human galectins -1, -3, -4N, -4C, -7, -8N, -9N, and -9C were expressed and purified as previously described 30,41. Fluorescence polarisation experiments were performed using the PHERAstar FS plat e reader (software version 2.10 R3), and the fluorescence anisotropy of fluorescein tagged probes was measured by excitation at 485 nm and emission at 520 nm. The specific conditions for galectins -1, -3, -4N, -4C, -7, -8N, -9N, and -9C were kept as report ed30,41,42. The synthesised compounds were dissolved in pure DMSO at 20 mM concentration and diluted in PBS to 3-6 different concentrations, and each concentration was tested in duplicate. The highest inhibitor concentrations tested were 1.5 mM. The

[2] = molecular target: T2, galectin-8N (galectin-8 N-terminal domain) (Homo sapiens, UniProt O00214); experiment: Competitive fluorescence polarization assay, galectin-8N; assay type: binding; details: for Kd: mean ± SEM of n = 4–8
T2 construct: selective ligand for the galectin-8 N-terminal domain (galectin-8N); made in house
T2 sequence (O00214 19-152 limits assumed): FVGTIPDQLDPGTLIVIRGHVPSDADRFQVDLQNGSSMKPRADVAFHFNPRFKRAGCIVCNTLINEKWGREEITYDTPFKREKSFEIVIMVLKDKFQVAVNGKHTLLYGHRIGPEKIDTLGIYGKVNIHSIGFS
Procedure: All synthesized D-galactal derivatives had higher binding affinities for galectin-8N than D-galactal 3.
as §1, §2

[3] = molecular target: T3, galectin-4N (N-terminal domain) (Homo sapiens, UniProt P56470); experiment: Competitive fluorescence polarization assay, galectin-4N; assay type: binding; details: mean ± SEM of n = 4–8
T3 construct: galectins (N = N-terminal domain, C = C-terminal domain); made in house
T3 sequence (P56470 19-150 limits assumed): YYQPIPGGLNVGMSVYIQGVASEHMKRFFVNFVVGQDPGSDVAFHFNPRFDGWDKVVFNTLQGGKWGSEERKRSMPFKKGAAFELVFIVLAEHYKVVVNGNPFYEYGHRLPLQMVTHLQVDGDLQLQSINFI
Procedure: as §1, §2

galectin-1 = molecular target: T4, galectin-1 (Homo sapiens, UniProt P09382); experiment: Competitive fluorescence polarization assay, galectin-1; assay type: binding; details: mean ± SEM of n = 4–8
T4 construct: made in house
Procedure: as §1, §2

[4] = molecular target: T5, galectin-8C (C-terminal domain) (Homo sapiens, UniProt O00214); experiment: Competitive fluorescence polarization assay, galectin-8C; assay type: binding; details: mean ± SEM of n = 4–8
T5 construct: galectins (N = N-terminal domain, C = C-terminal domain)
T5 sequence (O00214 187-317 limits assumed): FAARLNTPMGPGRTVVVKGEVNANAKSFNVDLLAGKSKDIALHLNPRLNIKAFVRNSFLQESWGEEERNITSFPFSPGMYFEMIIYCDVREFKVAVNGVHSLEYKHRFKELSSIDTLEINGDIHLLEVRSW

[5] = molecular target: T6, galectin-9N (N-terminal domain) (Homo sapiens, UniProt O00182); experiment: Competitive fluorescence polarization assay, galectin-9N; assay type: binding; details: mean ± SEM of n = 4–8
T6 construct: galectins (N = N-terminal domain, C = C-terminal domain); made in house
Procedure: as §1, §2

galectin-3 = molecular target: T7, galectin-3 (Homo sapiens, UniProt P17931); experiment: Competitive fluorescence polarization assay, galectin-3; assay type: binding; details: mean ± SEM of n = 4–8
T7 construct: made in house
Procedure: as §1, §2

[6] = molecular target: T8, galectin-9C (C-terminal domain) (Homo sapiens, UniProt O00182); experiment: Competitive fluorescence polarization assay, galectin-9C; assay type: binding; details: mean ± SEM of n = 4–8
T8 construct: galectins (N = N-terminal domain, C = C-terminal domain); made in house
Procedure: as §1, §2

[7] = system: IL-6 secretion from MDA-MB-231 cells; experiment: Multiplexed cytokine assay, IL-6 secretion; assay type: cell-based, human; details: 24 hours, vs untreated cells
Procedure: (§3) Figure 5 Effect of compounds 1 and 6a on the secretion of IL-6 and IL-8 expressed in pg/mL. The effects were measured after incubating the cells with the compounds at 10 and 100 μM. Compounds 1 and 6a reduce the secretion of IL-6 and IL-8 in a dose-dependent manner at 100 and 10 μM. Results shown are means ± SEM of three independent experiments. ns, not significant (p > 0.05); *p < 0.05 versus untreated controls.
(§4) Metabolic activity assay: […]
(§5) Briefly, the cells were treated with the selected compounds in 0.1% dimethyl sulfoxide (DMSO; vehicle), 0.1% DMSO (control vehicle), or medium (control) and seeded at a cell density of 5,500 cells/well (MDA-MB-231 cells) or 4 x 10^4 cells/well (K562 cells), 7000 cells/well (HepG2 cells) or 1 x 10^5 cells/well (human PBMCs) in duplicates (MDA-MB-231, K562, and […]) or triplicates for HepG2 cells (100 µL), in sterile 96-well plates. For the MDA-MB-231 and HepG2, the cells were left to adhere overnight before adding the compounds. The plates were then incubated for 24 hours (48 hours for HepG2), after which 15 µL of MTS reagent was added to each well. […]
(§6) HTX Multi-Mode; BioTek Instruments, Inc., VT, USA).
(§7) Multiplexed cytokine assay:
(§8) MDA-MB-231 cells were seeded in 96-well flat-bottom plates at a density of 2 x 10^4 cells/well in 100 µL of medium and allowed to adhere for 24 hours at 37 °C and 5% CO2. The medium was then replaced by a fresh medium containing the desired concentrations of compounds 1 and 6a, after which the cells were cells incubated again for 24 hours at 37 °C and 5% CO2. Cell-free supernatants were collected and stored at – 80 °C before the analysis. The cytokines secretion was assessed by BD Cytometric Bead Array Human inflammatory cytokine Kit (content: IL-1, IL-6, IL-8, IL-10, IL-12p). The flow cytometric analyses were performed on an Attune NxT flow cytometer (Thermo Fisher Scientific, Waltham, MA, USA). Standard curves were generated using recombinant cytokines provided in the kit, and the data were analyzed with FlowJo software (Tree Star, Inc., Ashland, OR). The results are expressed in pg/mL. Data are represented as means ± standard deviation (SD) from three representative independent experiments.
(§9) All experiments were performed at least twice, with average values expressed as means ± SD. All data were analyzed with the statistical software GraphPad Prism 8.0 (GraphPad Software, Inc., CA, USA). by one-way ANOVA followed with Dunnett’s multiple compar ison test. Differences were considered non-significant for p > 0.05, and significant (*) for p < 0.05.

[8] = system: human peripheral blood mononuclear cells (PBMCs); experiment: MTS metabolic activity (cytotoxicity) assay, PBMCs; assay type: cell-based; details: concentrations up to 100 μM, 24 hours
Procedure: (§10) We have investigated the cytotoxicity of the compounds 1, 6a, and 6c via a (3-(4,5-dimethylthiazol-2-yl)-5-(3-carboxymethoxyphenyl)-2-(4-sulfophenyl)-2H-tetrazolium) (MTS) assay in K562 and MDA-MB-231 cancer cell lines to establish the direct antitumor activity of compounds, as well as human peripheral blood mononuclear cells (PBMCs), to evaluate their safety.
(§11) Metabolic activity assay:
as §5, with “The metabolic activities of the cell lines were determined using the CellTiter 96 Aqueous One Solution cell proliferation assay (MTS Reagents, Promega, Madison, WI, USA), according to the manufacturer instructions. Briefly,” for “Briefly,”, “well. After 30-90 minute of incubation, the absorbance was measured at 492 nm using a microplate reader (Synergy HTX Multi-Mode; BioTek Instruments, Inc., VT, USA).” for “well.”
(§12) Bead Array Human inflammatory cytokine Kit (content: IL-1, IL-6, IL-8, IL-10, IL-12p). The flow cytometric analyses were performed on an Attune NxT flow cytometer (Thermo Fisher Scientific, […]
(§13) Data are represented as means ± standard deviation (SD) from three representative independent experiments.
(§14) All experiments were performed at least twice, with average values expressed as means ± SD. All data were analyzed with the statistical software GraphPad Prism 8.0 (GraphPad Software, Inc., CA, USA). by one-way ANOVA followed with Dunnett’s multiple compar ison test. Differences were considered non-significant for p > 0.05, and significant (*) for p < 0.05. […]

K562 cancer cell line = experiment: MTS metabolic activity (cytotoxicity) assay, K562; assay type: cell-based; details: concentrations 1 to 100 μM, 24 hours
Procedure: as §10, §11
as §5, with “The metabolic activities of the cell lines were determined using the CellTiter 96 Aqueous One Solution cell proliferation assay (MTS Reagents, Promega, Madison, WI, USA), according to the manufacturer instructions. Briefly,” for “Briefly,”, “well. After 30-90 minute of incubation, the absorbance was measured at 492 nm using a microplate reader (Synergy HTX Multi-Mode; BioTek Instruments, Inc., VT, USA).” for “well.”
as §12, §13, §14

[9] = system: IL-8 secretion from MDA-MB-231 cells; experiment: Multiplexed cytokine assay, IL-8 secretion; assay type: cell-based, human; details: 24 hours, vs untreated cells
Procedure: as §3, §4, §5, §6, §7, §8, §9

[10] = system: MDA-MB-231 cancer cell line; experiment: MTS metabolic activity (cytotoxicity) assay, MDA-MB-231; assay type: cell-based, human; details: concentrations 1 to 100 μM, 24 hours
Procedure: as §10, §11
as §5, with “The metabolic activities of the cell lines were determined using the CellTiter 96 Aqueous One Solution cell proliferation assay (MTS Reagents, Promega, Madison, WI, USA), according to the manufacturer instructions. Briefly,” for “Briefly,”, “well. After 30-90 minute of incubation, the absorbance was measured at 492 nm using a microplate reader (Synergy HTX Multi-Mode; BioTek Instruments, Inc., VT, USA).” for “well.”
as §12, §13, §14

[11] = molecular target: T2, galectin-8N (galectin-8 N-terminal domain); details: cited from earlier work
galectin-2 = molecular target: T9, galectin-2 (Homo sapiens, UniProt P05162); experiment: Competitive fluorescence polarization assay, galectin-2; assay type: binding; details: mean ± SEM of n = 4–8
T9 sequence (P05162 1-132): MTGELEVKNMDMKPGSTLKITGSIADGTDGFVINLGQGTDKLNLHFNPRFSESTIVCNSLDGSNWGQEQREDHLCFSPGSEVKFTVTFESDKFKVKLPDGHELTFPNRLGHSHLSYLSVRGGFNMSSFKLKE

T7 sequence (P17931 whole entry): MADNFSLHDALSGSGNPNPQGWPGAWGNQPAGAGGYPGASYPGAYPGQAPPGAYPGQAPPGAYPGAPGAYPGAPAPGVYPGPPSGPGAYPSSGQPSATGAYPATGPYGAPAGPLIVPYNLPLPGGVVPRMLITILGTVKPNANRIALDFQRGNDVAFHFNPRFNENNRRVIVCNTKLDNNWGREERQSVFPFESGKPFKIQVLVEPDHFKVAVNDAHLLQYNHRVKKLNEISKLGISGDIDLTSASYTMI
T6 sequence (O00182 17-148 limits assumed): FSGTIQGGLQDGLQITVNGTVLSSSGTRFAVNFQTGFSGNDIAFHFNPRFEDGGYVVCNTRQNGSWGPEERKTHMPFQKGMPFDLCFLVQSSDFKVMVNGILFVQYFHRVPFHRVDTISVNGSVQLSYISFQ
T8 sequence (O00182 227-355 limits assumed): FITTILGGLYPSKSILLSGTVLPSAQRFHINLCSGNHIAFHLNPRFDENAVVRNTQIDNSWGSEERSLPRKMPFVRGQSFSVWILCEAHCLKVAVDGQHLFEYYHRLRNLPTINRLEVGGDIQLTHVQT
T4 sequence (P09382 whole entry): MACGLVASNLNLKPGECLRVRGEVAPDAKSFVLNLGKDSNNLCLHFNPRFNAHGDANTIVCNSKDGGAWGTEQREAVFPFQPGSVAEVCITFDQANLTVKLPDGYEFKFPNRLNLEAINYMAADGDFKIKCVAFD

Molecule | Kd [1] [mM] | Kd [2] [mM] | Kd [3] [mM] | Kd (galectin-1) [mM] | Kd [4] [mM] | Kd [5] [mM] | Kd (galectin-3) [mM] | Kd [6] [mM] | other results
COC(=O)c1ccc2nc(CO[C@@H]3C=CO[C@H](CO)[C@@H]3O)n(C)c2c1 [5a] | 2.6 ± 0.23 | 0.4 ± 0.034 | 1.7 ± 0.06 | 2.2 ± 0.138 | 3 ± 0.38 | > 1.5 | 1.3 ± 0.13 |  | 
CCOC(=O)c1ccc2c(c1)nc(CO[C@@H]1C=CO[C@H](CO)[C@@H]1O)n2C [5b] |  | 0.69 ± 0.053 |  | 0.84 ± 0.02 | 1.5 ± 0.18 |  | 0.68 ± 0.037 |  | 
COC(=O)c1ccc2nc(CO[C@@H]3C=CO[C@H](CO)[C@@H]3O)[nH]c2c1 [5c] | 2.5 | 0.18 ± 0.019 | 3.2 | > 1.5 | 3 ± 0.3 | > 1.5 | 1.2 ± 0.287 | > 1.5 | 
Cn1c(CO[C@@H]2C=CO[C@H](CO)[C@@H]2O)nc2cc(C(=O)O)ccc21 [6b] | 2.5 ± 0.3 | 0.81 ± 0.054 | 3.6 | 1.1 ± 0.087 | 3 ± 0.03 | > 1.5 | 0.77 ± 0.129 | > 1.5 | 
Cn1c(CO[C@@H]2[C@@H](O)[C@@H](Sc3ccc(Cl)c(Cl)c3)O[C@H](CO)[C@@H]2O)nc2ccc(C(=O)O)cc21 [compound 1, reference compound] |  |  |  |  |  |  |  |  | reduction in IL-6 secretion ([7]; 10 μM, effect not significant): about 15%; reduction of IL-6 secretion ([7]; 100 μM): about 65%; direct cytotoxicity (MTS), PBMCs [8]: lack of direct cytotoxicity; cell viability (MTS), K562 (K562 cancer cell line): None of the compounds decreased the viability; reduction in IL-8 secretion ([9]; 10 μM, effect not significant): ~20%; reduction of IL-8 secretion ([9]; 100 μM): about 55%; affinity for galectin-8N relative to that of compound 6a [2]: about 25 fold; cell viability (MTS), MDA-MB-231 [10]: None of the compounds decreased the viability; also recorded: no effect on the viability
OC[C@H]1Oc2cc(Cc3ccc(F)cc3)cc3c2[C@@H](OC3)[C@H]1O [compound 2] |  |  |  |  |  |  |  |  | selectivity for galectin-8N over galectin-1 [11]: about 2 fold; selectivity for galectin-8N over galectin-3 [11]: 23 fold
OC[C@H]1OC=C[C@@H](O)[C@H]1O [compound 3, D-galactal] | 5.3 | 1.3 ± 0.072 | 2.4 ± 0.013 | 1.6 ± 0.14 | 4.1 ± 0.47 | > 1.5 | 3.3 ± 0.65 | 4.8 | higher affinity for galectin-8N compared to the methyl β-D-galactopyranoside [2]: 5 fold
COC(=O)c1ccc2ccc(CO[C@@H]3C=CO[C@H](CO)[C@@H]3O)nc2c1 [compound 8] | 3.7 ± 0.25 | 0.23 ± 0.016 | 1.3 ± 0.012 | > 1.5 | > 1.5 | 1 ± 0.051 | 1.7 ± 0.04 | > 1.5 | Kd (galectin-2): > 1.5 mM
methyl β-D-galactomalonyl phenyl ester |  |  |  |  |  |  |  |  | Kd [11]: 0.0057 mM
